Assays:
bermudagrass = test: Test E preemergence; assay type: in vivo, Cynodon dactylon; conditions: 21 days, scale 0 to 100
Excerpt: (§1) Seeds of plant species selected from bermudagrass (Cynodon dactylon), Surinam grass (Brachiaria decumbens), crabgrass, large (large crabgrass, Digitaria sanguinalis), crabgrass, naked (naked crabgrass, Digitaria nuda), foxtail, green (green foxtail, Setaria viridis), johnsongrass (Sorghum halepense), kochia (Kochia scoparia), morningglory (pitted morningglory, Ipomoea lacunosa), nutsedge, purple (purple nutsedge, Cyperus rotundus), ragweed (common ragweed, Ambrosia elation), mustard, black (black mustard, Brassica nigra), guineagrass (Panicum maximum), dallisgrass (Paspalum dilatatum), barnyardgrass (Echinochloa crus-galli), sandbur (southern sandbur, Cenchrus echinatus), sowthistle (common sowthistle, Sonchus oleraceous), ryegrass, Italian (Italian ryegrass, Lolium multiflorum), signalgrass (broadleaf signalgrass, Brachiaria platyphylla), dayflower, VA (Virginia (VA) dayflower, Commelina virginica), bluegrass (annual bluegrass, Poa annua), quackgrass (Elytrigia repens), mallow (common mallow, Malva sylvestris), buckwheat, wild (wild buckwheat, Polygonum convolvulus), leafy spurge (Euphorbia esula), common chickweed (Stellaria media), wild poinsettia (Euphorbia heterophylla), pigweed, palmer (palmer pigweed, Amaranthus palmeri), and pigweed (redroot pigweed, Amaranthus retroflexus) were planted into a blend of loam soil and sand and treated preemergence with test chemicals formulated in a non-phytotoxic solvent mixture which included a surfactant.
(§2) Treated plants and controls were maintained in a greenhouse for 21 days, after which time all species were compared to controls and visually evaluated. Plant response ratings, summarized in Table E, are based on a scale of 0 to 100 where 0 is no effect and 100 is complete control. A dash (-) response means no test result.

foxtail, green = test: Test E preemergence; assay type: in vivo, Setaria viridis; conditions: 21 days, scale 0 to 100
Excerpt: as §1, §2

kochia = test: Test E preemergence; assay type: in vivo, Kochia scoparia; conditions: 21 days, scale 0 to 100
Excerpt: as §1, §2

barnyardgrass = test: Test E preemergence; assay type: in vivo, Echinochloa crus-galli; conditions: 21 days, scale 0 to 100
Excerpt: as §1, §2

mallow = test: Test E preemergence; assay type: in vivo, Malva sylvestris; conditions: 21 days, scale 0 to 100
Excerpt: as §1, §2

common ragweed [1] = test: Test A preemergence; assay type: in vivo, Ambrosia elation
How it was run: (§3)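 Growth medium: loam soil blended with sand. Preemergence treatment used a directed soil spray right after planting; postemergence treatment targeted seedlings at one to two leaves (2–10 cm height). Response was judged by eye relative to untreated plants about 10 days later on a 0–100 control scale.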

common ragweed [2] = test: Test A postemergence; assay type: in vivo, Ambrosia elation
How it was run: as §3

galium = test: Test A postemergence; assay type: in vivo, Galium aparine
How it was run: as §3

[3] = 125 g ai/ha, visual injury, 0 to 100 scale, approx. 10 days
[4] = 500 g ai/ha, visual injury after approx. 10 days, 0 to 100 scale (0 no effect, 100 complete control)
[5] = Postemergence, 500 g ai/ha, 0 to 100 scale (0 no effect, 100 complete control)
[6] = postemergence, 125 g ai/ha, about 10 days, visual rating on 0 to 100 scale (0 no effect, 100 complete control)

Row | Structure (SMILES) | Plant response rating, Bermudagrass (bermudagrass; 16 g ai/ha) | Plant response rating, Bermudagrass (bermudagrass; 31 g ai/ha) | Plant response rating, Bermudagrass (bermudagrass; 62 g ai/ha) | Plant response rating, Bermudagrass (bermudagrass; 125 g ai/ha) | Plant response rating, Bermudagrass (bermudagrass; 250 g ai/ha) | Plant response rating, Foxtail, Green (foxtail, green; 16 g ai/ha) | Plant response rating, Foxtail, Green (foxtail, green; 31 g ai/ha) | Plant response rating, Foxtail, Green (foxtail, green; 62 g ai/ha) | Plant response rating, Foxtail, Green (foxtail, green; 125 g ai/ha) | Plant response rating, Foxtail, Green (foxtail, green; 250 g ai/ha) | Plant response rating, Kochia (kochia; 16 g ai/ha) | Plant response rating, Kochia (kochia; 31 g ai/ha) | Plant response rating, Kochia (kochia; 62 g ai/ha) | Plant response rating, Kochia (kochia; 125 g ai/ha) | Plant response rating, Kochia (kochia; 250 g ai/ha) | Plant response rating, Barnyardgrass (barnyardgrass; 16 g ai/ha) | Plant response rating, Barnyardgrass (barnyardgrass; 31 g ai/ha) | Plant response rating, Barnyardgrass (barnyardgrass; 62 g ai/ha) | Plant response rating, Barnyardgrass (barnyardgrass; 125 g ai/ha) | Plant response rating, Barnyardgrass (barnyardgrass; 250 g ai/ha) | also measured
1 | CCc1cc(C(=O)NCC(F)(F)F)nn1Cc1ccnc(C(F)(F)F)c1 [Compound 78, 5-ethyl-N-(2,2,2-trifluoroethyl)-1-[[(2-trifluoromethyl)-4-pyridinyl]methyl]-1H-pyrazole-3-carboxamide] | 70 | 85 | 100 | 100 | 100 | 50 | 100 | 100 | 100 | 100 | 100 | 100 | 100 | 100 | 100 | 35 | 95 | 100 | 100 | 100 | Plant response rating, Mallow (mallow; 16 g ai/ha): 100; Plant response rating, Mallow (mallow; 31 g ai/ha): 100; Plant response rating, Mallow (mallow; 62 g ai/ha): 100; Plant response rating, Mallow (mallow; 125 g ai/ha): 100; Plant response rating, Mallow (mallow; 250 g ai/ha): 100
2 | CCc1cc(C(=O)NC(C)C)nn1Cc1ccnc(C(F)(F)F)c1 [Compound 103] | 80 | 98 | 100 | 98 | 100 | 100 | 100 | 100 | 100 | 100 | 95 | 100 | 100 | 100 | 100 | 90 | 100 | 100 | 100 | 100 | Plant response rating, Mallow (mallow; 16 g ai/ha): 95; Plant response rating, Mallow (mallow; 31 g ai/ha): 98; Plant response rating, Mallow (mallow; 62 g ai/ha): 98; Plant response rating, Mallow (mallow; 125 g ai/ha): 100; Plant response rating, Mallow (mallow; 250 g ai/ha): 100
3 | CCOc1cc(C(=O)NCC(F)(F)F)nn1Cc1ccnc(C(F)(F)F)c1 [Compound 104] | 90 | 95 | 98 | 100 | 100 | 100 | 100 | 100 | 100 | 100 | 100 | 100 | 100 | 100 | 100 | 95 | 100 | 100 | 100 | 100 | Plant response rating, Mallow (mallow; 16 g ai/ha): 40; Plant response rating, Mallow (mallow; 31 g ai/ha): 98; Plant response rating, Mallow (mallow; 62 g ai/ha): 100; Plant response rating, Mallow (mallow; 125 g ai/ha): 98; Plant response rating, Mallow (mallow; 250 g ai/ha): 100
4 | CCCc1cc(C(=O)NCC(F)(F)F)nn1Cc1ccnc(C(F)(F)F)c1 [Compound 105] | 70 | 90 | 98 | 98 | 100 | 95 | 98 | 100 | 100 | 100 | 100 | 100 | 100 | 100 | 100 | 35 | 70 | 85 | 95 | 98 | Plant response rating, Mallow (mallow; 16 g ai/ha): 100; Plant response rating, Mallow (mallow; 31 g ai/ha): 100; Plant response rating, Mallow (mallow; 62 g ai/ha): 100; Plant response rating, Mallow (mallow; 125 g ai/ha): 100; Plant response rating, Mallow (mallow; 250 g ai/ha): 100
5 | CCONC(=O)c1cc(CC)n(Cc2cc(C(F)(F)F)no2)n1 [Compound 125] |  |  |  |  |  |  |  |  |  |  |  |  |  |  |  |  |  |  |  |  | Common Ragweed plant response rating (common ragweed [1]; [3]): 50; Common Ragweed plant response rating (common ragweed [1]; [4]): 90; Common Ragweed plant response rating (common ragweed [2]; [5]): 60; Common Ragweed plant response rating (common ragweed [2]; [6]): 20; Galium plant response rating (galium; [5]): 90; Galium plant response rating (galium; [6]): 60
6 | CCOc1cc(C(=O)NC2CC2)nn1Cc1ccnc(OC(F)F)c1 [Compound 133] |  |  |  |  |  |  |  |  |  |  |  |  |  |  |  |  |  |  |  |  | Common Ragweed plant response rating (common ragweed [1]; [3]): 80; Common Ragweed plant response rating (common ragweed [1]; [4]): 90; Common Ragweed plant response rating (common ragweed [2]; [5]): 100; Common Ragweed plant response rating (common ragweed [2]; [6]): 60; Galium plant response rating (galium; [5]): 90; Galium plant response rating (galium; [6]): 80
